We go through 14 molecules from patent US10995091B2 (Proximagen, LLC, priority 2010, dated 2021).

SMILES strings stand for the structures. pKi: −log10 of the molar value. Some results are limits rather than exact numbers.

T1 sequence (P61073 whole entry): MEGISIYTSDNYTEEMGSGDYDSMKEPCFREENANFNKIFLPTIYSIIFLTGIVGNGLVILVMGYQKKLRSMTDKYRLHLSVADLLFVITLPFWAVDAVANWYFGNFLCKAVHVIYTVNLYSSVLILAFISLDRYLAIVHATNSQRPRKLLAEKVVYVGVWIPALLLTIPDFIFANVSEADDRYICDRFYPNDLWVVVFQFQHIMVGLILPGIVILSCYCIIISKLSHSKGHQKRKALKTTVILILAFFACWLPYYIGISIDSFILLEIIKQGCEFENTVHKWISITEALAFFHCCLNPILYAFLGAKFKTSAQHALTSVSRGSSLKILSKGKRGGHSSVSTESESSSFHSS

The assay concerns the target T1, Human CXCR4 transfected HEK293 cells (Homo sapiens, UniProt P61073).
T1 construct: expressed in transfected cells; host or cells: HEK293
In words: CXCR4 functional calcium assay (calcium flux FLIPR, antagonism of SDF1 response). The assay is classed as cell-based. To be noted: CXCR4 functional activity, antagonism of SDF1 (EC50 concentration), read-out: CXCR4 fKi. As to the method: The functional activity of test compounds was routinely tested by measuring the ability of compounds to antagonize CXCR4 activity in a dose dependent manner, using a calcium flux Fluorescent Imaging Plate Reader FLIPR assay.
Human CXCR4 transfected HEK293 cells were cultured in Dulbecco's modified Eagles medium containing 4.5 g/L glucose, L-glutamine, pyruvate, 50 µg/mL Geneticin and 250 µg/mL hygromycin B and maintained at 37° C. in a humidified, 5% CO2 controlled atmosphere. Subcultivations were performed every 2-3 d.
At confluence the cells were lifted using Ca^2+ and Mg^2+ free PBS/0.02% (w/v) EDTA, spun at 1000 rpm for 3 min and resuspended at 2.5×10^5 cells/mL. Cells were plated into a 384 well, poly-d-lysine coated, black with clear bottomed plate (Becton Dickinson) at 7500 cells/well. The plates were incubated overnight at 37° C. under 5% CO2. On the day of the experiment the cells were washed with incubation Buffer (HBSS containing 2.5 mM probenecid, 0.1% w/v BSA and 10 mM HEPES, pH 7.4 at 37° C.). After washing, the cells were loaded with Fluo-4 AM dye (Molecular probes) at 2 µM containing 0.48 µg/mL pluronic acid for 60 min at 37° C. under 5% CO2. After thorough washing with incubation buffer the cells were preincubated for 10 min at 37° C. before use.
A combined agonist/antagonist protocol was used to measure changes in intracellular calcium concentration. Compound (antagonist) was added to the cell plate using a Fluorometric Imaging Plate Reader (FLIPR) (Molecular Devices, Sunnyvale, Calif., USA). Basal fluorescence was recorded every second for 10 seconds prior to compound addition (10 μl) and fluorescence recorded every second for 1 min then every 6 seconds for a further 1 min. SDF1[…] (EC50 concentration) was then added using the FLIPR and fluorescence recorded as described above. Curve-fitting and parameter estimation were carried out using GraphPad Prism 4.0 (GraphPad Software Inc., San Diego, Calif.).
For orientation: A change in cytosolic calcium serves as a functional read-out for many receptors and channels.
Take `CC(C)N1CCC(N2CCCN(c3cccc(C(=O)NCc4ccccn4)n3)CC2)CC1` [Example 33, 6-{4-[1-(Propan-2-yl)piperidin-4-yl]-1,4-diazepan-1-yl}-N-(pyridin-2-ylmethyl)pyridine-2-carboxamide]: the pKi is 7.00 to 7.70.
With `CC(C)N1CCC(N2CCCN(c3cccc(C(=O)NCc4cccnc4)n3)CC2)CC1` [Example 34, 6-{4-[1-(Propan-2-yl)piperidin-4-yl]-1,4-diazepan-1-yl}-N-(pyridin-3-ylmethyl)pyridine-2-carboxamide] the figure was greater than 7.70.
As to `CC(C)N1CCC(N2CCCN(c3cccc(C(=O)N(C)Cc4cccnc4)n3)CC2)CC1` [Example 35, N-Methyl-6-{4-[1-(Propan-2-yl)piperidin-4-yl]-1,4-diazepan-1-yl}-N-(pyridin-3-ylmethyl)pyridine-2-carboxamide], the pKi is 6.30 to 7.00.
Regarding `CC(C)N1CCC(N2CCCN(c3cccc(C(=O)NCc4ccncc4)n3)CC2)CC1` [Example 36, 6-{4-[1-(Propan-2-yl)piperidin-4-yl]-1,4-diazepan-1-yl}-N-(pyridin-4-ylmethyl)pyridine-2-carboxamide], the pKi was greater than 7.70.
With `CC(C)N1CCC(N2CCCN(c3cccc(C(=O)NCc4nccn4C)n3)CC2)CC1` [Example 37, N-[(1-Methyl-1H-imidazol-2-yl)methyl]-6-{4-[1-(propan-2-yl)piperidin-4-yl]-1,4-diazepan-1-yl}pyridine-2-carboxamide] the figure was 6.30 to 7.00.
With `CC(C)N1CCC(N2CCCN(c3cccc(C(=O)NCc4ncco4)n3)CC2)CC1` [Example 38, N-(1,3-Oxazol-2-ylmethyl)-6-{4-[1-(propan-2-yl)piperidin-4-yl]-1,4-diazepan-1-yl}pyridine-2-carboxamide] the figure was 7.00 to 7.70; with `CC(C)N1CCC(N2CCCN(c3cccc(C(=O)NCc4nccs4)n3)CC2)CC1` [Example 39, 6-{4-[1-(Propan-2-yl)piperidin-4-yl]-1,4-diazepan-1-yl} N-(1,3-thiazol-2-ylmethyl)pyridine-2-carboxamide], 7.00 to 7.70.
Then `CC(C)N1CCC(N2CCCN(c3cccc(C(=O)NCc4ccco4)n3)CC2)CC1` [Example 40, N-(Furan-2-ylmethyl)-6-{4-[1-(propan-2-yl)piperidin-4-yl]-1,4-diazepan-1-yl}pyridine-2-carboxamide], with greater than 7.70; and `CC(C)N1CCC(N2CCCN(c3cccc(C(=O)NCc4cocn4)n3)CC2)CC1` [Example 41, N-(1,3-Oxazol-4-ylmethyl)-6-{4-[1-(propan-2-yl)piperidin-4-yl]-1,4-diazepan-1-yl}pyridine-2-carboxamide], with 7.00 to 7.70.
Turning to `CC(C)N1CCC(N2CCCN(c3cccc(C(=O)NCc4cscn4)n3)CC2)CC1` [Example 42, 6-{4-[1-(Propan-2-yl)piperidin-4-yl]-1,4-diazepan-1-yl}-N-(1,3-thiazol-4-ylmethyl)pyridine-2-carboxamide], the pKi was 7.00 to 7.70.
With `CC(C)N1CCC(N2CCCN(c3cccc(C(=O)NCc4cncs4)n3)CC2)CC1` [Example 43, 6-{4-[1-(Propan-2-yl)piperidin-4-yl]-1,4-diazepan-1-yl}-N-(1,3-thiazol-5-ylmethyl)pyridine-2-carboxamide] the figure was 7.00 to 7.70; with `CC(C)N1CCC(N2CCCN(c3cccc(C(=O)NCc4cnco4)n3)CC2)CC1` [Example 44, N-(1,3-Oxazol-5-ylmethyl)-6-{4-[1-(propan-2-yl)piperidin-4-yl]-1,4-diazepan-1-yl}pyridine-2-carboxamide], 7.00 to 7.70.
For the molecule `CC(C)N1CCC(N2CCCN(c3cccc(C(=O)NCCn4ccnc4)n3)CC2)CC1` [Example 45, N-[2-(1H-Imidazol-1-yl)ethyl]-6-{4-[1-(propan-2-yl)piperidin-4-yl]-1,4-diazepan-1-yl}pyridine-2-carboxamide], the pKi was 7.00 to 7.70.
As to `CC(C)N1CCC(N2CCCN(c3cccc(C(=O)NCCc4ccccn4)n3)CC2)CC1` [Example 46, 6-{4-[1-(Propan-2-yl)piperidin-4-yl]-1,4-diazepan-1-yl}-N-[2-(pyridin-2-yl)ethyl]pyridine-2-carboxamide], the pKi was 7.00 to 7.70.
